Data on two molecules can be found in patent US20100041689A1, “Combined Effects of Topiramate and Ondansetron on Alcohol Consumption” (UNIVERSITY OF VIRGINIA PATENT FOUNDATION, priority 2006, published 2010).

Series [1] has as its system early-onset alcoholics. The conditions noted are these: cited from earlier work.
The test system of series [2] is alcohol-preferring (P) rats. As to the kind of experiment: Alcohol deprivation effect (ADE, relapse model), P rats. The format is in vivo, rat. The conditions noted are these: for alcohol deprivation effect (ADE), consumption 24 hours after ethanol reinstated: Example 4, chronic daily treatment from day 8 of 15-day withdrawal, topiramate 10 mg/kg, ondansetron 0.001 mg/kg, FIG. 5A. On the procedure: (§1) The effects of ondansetron and topiramate were examined for their ability to modulate two important aspects of alcohol abuse: total consumption and relapse. Total consumption was examined under a 24-hour-access two-bottle choice procedure wherein rats had unlimited access to alcohol solutions (10%) and water. Alcohol relapse was assessed in alcohol-dependent rats by examining alcohol consumption following an extended abstinence period. Specifically, in alcohol-dependent rats, when alcohol is reintroduced following an extended abstinence period, rats show marked increases in consumption as compared with levels of consumption prior to abstinence.

The subject of series [3] is Wistar rats. As to the kind of experiment: Ethanol consumption, 24-hour-access two-bottle choice, Wistar rats. The format is in vivo, rat. The settings on record: for alcohol consumption, change from baseline: Example 3, ondansetron 0.001 or 0.01 mg/kg with topiramate 10 mg/kg IP, 4 to 5 rats, FIG. 3; for alcohol consumption, change from baseline / preference ratio for ethanol over water, average on test sessions / preference for ethanol over water, baseline change: Wistar rats; for ethanol consumption: Example 4, Wistar rats n=5, preliminary, FIG. 4B; for preference ratio for ethanol over water, average on test sessions: baseline average 0.30±0.03; for preference for ethanol over water, baseline change: test sessions. On the procedure:
Combined effect of topiramate (5 and 10 mg/kg, IP) and ondansetron (0.001 and 0.01 mg/kg, IP) on alcohol consumption in Wistar rats. […] The experiments utilized four to five rats per condition. Data are expressed as change from baseline levels of alcohol consumption.
as §1
(§2) 1) The combination of topiramate and ondansetron reduces ethanol consumption in rats: Total consumption was examined under a 24-hour-access two-bottle choice procedure (10% ethanol vs. water). To induce drinking, both Wistar and P rats were trained onto ethanol using a standard sucrose fading procedure. […] At baseline, the average preference was 0.6±0.2, and the average values observed on test sessions with topiramate alone, ondansetron alone, the combination of topiramate and ondansetron, and vehicle were 0.51±0.2 (−9±4% baseline change), 0.58±0.0 (1±2%), 0.51±0.03 (−11±4%), and 0.59±0.03 (1%±0), respectively. […] At baseline, the average preference ratio was 0.30±0.03 and the average values observed on test sessions with topiramate alone, ondansetron alone, the combination of topiramate and ondansetron, and vehicle were 0.25±0.03 (−6±7% baseline change), 0.26±0.04 (2±2%), 0.31±0.02 (1±3%; P<0.05), and 0.3±0.03 (6%±4), respectively.

The test system of series [4] is alcohol-preferring (P) rats. The experiment in a line: Ethanol consumption, 24-hour-access two-bottle choice (10% ethanol vs. water), P rats. In kind it is in vivo, rat. The conditions noted are these: for decrease from baseline in alcohol consumption: Example 1, topiramate 10 mg/kg IP, ondansetron 0.001 mg/kg IP, test session, mean±SE of 17 rats; for decrease from baseline in alcohol consumption / preference for ethanol over water, average on test sessions / preference for ethanol over water, baseline change: P rats; for ethanol consumption vs baseline: Example 4, P rats N=18, topiramate 10 mg/kg, ondansetron 0.001 mg/kg, FIG. 4A; for preference for ethanol over water, average on test sessions: baseline average preference 0.6±0.2; for preference for ethanol over water, baseline change: test sessions. The protocol: Combined effect of topiramate (10 mg/kg, IP) and ondansetron (0.001 mg/kg, IP) on alcohol consumption in alcohol-preferring (P) rats. […] Data were plotted across 7 consecutive sessions, which include a 3-day baseline period, the test session in which the ondansetron and/or topiramate injection was administered, and the 3 sessions that followed the test session. […]
as §1, §2

Series [5] deals with early-onset alcoholics. The conditions noted are these: ondansetron in early-onset alcoholics.
Series [6] concerns alcohol-dependent subjects. As to the kind of experiment: Topiramate alone in alcohol dependence (comparison data from a different study). In kind it is in vivo, human.
Series [7] concerns alcohol-dependent subjects. The conditions noted are these: topiramate alone, cited from earlier work.

With `Cc1nccn1CC1CCc2c(c3ccccc3n2C)C1=O` (stereo not drawn) [Ondansetron, 9-methyl-3-[(2-methyl-1H-imidazol-1-yl)methyl]-1,2,3,9-tetrahydrocarbazol-4-one], the “report of weight loss” value in series [1] (individuals taking ondansetron alone) is “no appreciable report of weight loss”. Besides, the paresthesia result in series [1] (ondansetron administered alone) is on record as “not associated with paresthesia”. Further, in series [1] (ondansetron alone in early-onset alcoholics), the “mean reduction in drinks per day” value is −3.28 drinks per day. In series [2], the “alcohol deprivation effect (ADE), consumption 24 hours after ethanol reinstated” value is “blocked the ADE”. Besides, in series [3], the “alcohol consumption, change from baseline” value is given as “lack of modulation”; the ethanol consumption result was “no affect was observed on consumption”; the “preference ratio for ethanol over water, average on test sessions” value came out at 0.26±0.04; the “preference for ethanol over water, baseline change” value (from here on “preference … baseline change”) stood at 2±2%. Further, in series [4], the “decrease from baseline in alcohol consumption” value was 1%±7%; the “ethanol consumption vs baseline” value is listed as “did not impact ethanol consumption on its own”; the “preference for ethanol over water, average on test sessions” value is reported as 0.58±0.0; the “preference … baseline change” value is reported as 1±2%. In series [5], the “Cohen's effect size: drinks per day” value is −0.55, the “Cohen's effect size: drinks per drinking day” value is recorded as −0.48 and the “Cohen's effect size: percentage of days abstinent” value is listed as “+0.27”.
Regarding `CC1(C)O[C@@H]2[C@@H](CO[C@@]3(COS(N)(=O)=O)OC(C)(C)O[C@@H]23)O1` [Topiramate, 2,3:4,5-Bis-O-(1-methylethylidene)-beta-D-fructopyranose sulfamate], in series [2] (Example 2, topiramate 10 mg/kg IP, ondansetron 0.001 mg/kg IP, 2 to 3 rats, FIG. 2), the “alcohol consumption following a two-week abstinence period (alcohol deprivation effect)” value is “attenuated the alcohol deprivation effect”. Further, the “alcohol deprivation effect (ADE), consumption 24 hours after ethanol reinstated” value in series [2] was “blocked the ADE”. In series [3], the “alcohol consumption, change from baseline” value is given as “lack of modulation”; the ethanol consumption result was “no affect was observed on consumption”; the “preference ratio for ethanol over water, average on test sessions” value is on record as 0.25±0.03; the “preference … baseline change” value was −6±7%. Also, in series [4], the “decrease from baseline in alcohol consumption” value came to 13±5%; the “ethanol consumption vs baseline” value is “significant decrease from baseline ethanol consumption”; the “preference for ethanol over water, average on test sessions” value turned out to be 0.51±0.2; the “preference … baseline change” value was −9±4%. Further, in series [6], the “Cohen's effect size: drinks per day” value is recorded as −0.80, the “Cohen's effect size: drinks per drinking day” value was −0.63 and the “Cohen's effect size: percentage of days abstinent” value was “+0.73”. Further, in series [7] (different study), the “adverse event rate: dizziness” value is on record as 28%, the “adverse event rate: paresthesia” value is on record as 54% and the “adverse event rate: slowing in psychomotor performance” value was 27%. The “individuals reporting weight loss” value in series [7] is 19.7%. The frequency of paresthesia result in series [7] (share of individuals) was “over 50%”.
